Assay results reported in US20080146617A1, “Methods of treating inflammatory diseases” (Roche Palo Alto LLC, priority 2006, published 2008).
Read-outs that look alike come from different tables or passages of the source.

Key:
Assay in all cases: KinomeScan kinase profiling
Assay type in all cases: binding
p38-alpha = molecular target: T1, p38-alpha (Homo sapiens, UniProt Q16539)
T1 construct: purchased Ambit Biosciences (San Diego, Calif.)

RPS6KA2 = molecular target: T2, RPS6KA2 (Homo sapiens, UniProt Q15349)
T2 construct: purchased Ambit Biosciences

CSNK1E = molecular target: T3, CSNK1E (Homo sapiens, UniProt P49674)
T3 construct: purchased Ambit Biosciences (San Diego, Calif.)
T3 sequence (P49674 whole entry): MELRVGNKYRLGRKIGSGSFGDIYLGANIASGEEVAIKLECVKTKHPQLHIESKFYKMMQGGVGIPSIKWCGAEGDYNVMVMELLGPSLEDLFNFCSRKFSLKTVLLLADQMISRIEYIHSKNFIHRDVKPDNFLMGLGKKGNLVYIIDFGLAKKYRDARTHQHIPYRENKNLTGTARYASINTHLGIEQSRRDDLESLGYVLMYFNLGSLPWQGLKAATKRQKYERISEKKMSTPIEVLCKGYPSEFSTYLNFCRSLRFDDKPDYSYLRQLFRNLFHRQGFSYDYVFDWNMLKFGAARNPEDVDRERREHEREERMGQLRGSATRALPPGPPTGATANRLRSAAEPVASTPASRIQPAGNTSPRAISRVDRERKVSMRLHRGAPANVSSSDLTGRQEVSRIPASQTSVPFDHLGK

FGFR3 = molecular target: T4, FGFR3 (Homo sapiens, UniProt P22607)
T4 construct: purchased Ambit Biosciences (San Diego, Calif.)
T4 sequence (P22607 23-806): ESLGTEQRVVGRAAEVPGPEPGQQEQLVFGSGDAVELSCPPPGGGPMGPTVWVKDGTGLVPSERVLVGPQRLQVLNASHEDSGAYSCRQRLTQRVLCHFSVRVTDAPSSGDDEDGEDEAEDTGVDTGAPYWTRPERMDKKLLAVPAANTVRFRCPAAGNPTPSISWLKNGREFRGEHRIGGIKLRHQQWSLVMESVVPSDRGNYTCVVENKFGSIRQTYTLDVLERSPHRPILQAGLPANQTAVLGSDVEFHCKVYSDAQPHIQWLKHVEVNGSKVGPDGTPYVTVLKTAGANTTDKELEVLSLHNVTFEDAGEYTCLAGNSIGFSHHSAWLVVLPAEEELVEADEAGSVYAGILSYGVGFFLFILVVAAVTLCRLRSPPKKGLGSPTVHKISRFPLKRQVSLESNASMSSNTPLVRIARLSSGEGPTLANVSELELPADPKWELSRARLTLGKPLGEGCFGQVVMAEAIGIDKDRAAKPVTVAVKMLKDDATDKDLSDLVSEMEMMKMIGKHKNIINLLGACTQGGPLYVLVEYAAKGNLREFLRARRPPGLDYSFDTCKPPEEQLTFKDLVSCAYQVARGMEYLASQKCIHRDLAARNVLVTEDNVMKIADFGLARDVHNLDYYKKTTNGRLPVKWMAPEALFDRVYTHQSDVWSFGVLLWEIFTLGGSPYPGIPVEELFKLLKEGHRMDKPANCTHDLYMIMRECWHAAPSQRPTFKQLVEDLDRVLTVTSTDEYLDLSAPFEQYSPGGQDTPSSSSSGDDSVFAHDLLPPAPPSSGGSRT

EPHB4 = molecular target: T5, EPHB4 (Homo sapiens, UniProt P54760)
T5 construct: purchased Ambit Biosciences (San Diego, Calif.)

STK4 = molecular target: T6, STK4 (Homo sapiens, UniProt Q13043)
T6 construct: purchased Ambit Biosciences
T6 sequence (Q13043 whole entry): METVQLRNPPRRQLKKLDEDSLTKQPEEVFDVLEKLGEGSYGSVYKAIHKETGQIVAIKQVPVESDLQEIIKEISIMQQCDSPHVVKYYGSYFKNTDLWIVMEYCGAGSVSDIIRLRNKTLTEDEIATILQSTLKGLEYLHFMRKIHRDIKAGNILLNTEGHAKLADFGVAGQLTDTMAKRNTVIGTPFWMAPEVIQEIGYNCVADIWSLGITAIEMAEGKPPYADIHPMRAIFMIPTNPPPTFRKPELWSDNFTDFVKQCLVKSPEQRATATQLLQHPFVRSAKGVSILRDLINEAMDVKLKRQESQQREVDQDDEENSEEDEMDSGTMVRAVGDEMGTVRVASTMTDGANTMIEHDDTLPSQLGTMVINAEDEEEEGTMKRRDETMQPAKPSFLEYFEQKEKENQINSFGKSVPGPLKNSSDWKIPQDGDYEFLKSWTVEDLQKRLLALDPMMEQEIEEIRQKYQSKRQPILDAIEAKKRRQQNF

RIPK2 = molecular target: T7, RIPK2 (Homo sapiens, UniProt O43353)
T7 construct: purchased Ambit Biosciences
From the text: (§1) The selectivity of a given CK1δ, CK1ε or CK1δ-CK1ε inhibitor compound can be determined by testing the compound against a panel of known kinases. An example of such a kinase profiling technology is the “KinomeScan” from Ambit Biosciences in which compounds can be screened for their modulatory activities against more than 200 known kinases.

CAMK1D = molecular target: T8, CAMK1D (Homo sapiens, UniProt Q8IU85)
T8 construct: purchased Ambit Biosciences (San Diego, Calif.)
From the text: as §1

CAMK2D = molecular target: T9, CAMK2D (Homo sapiens, UniProt Q13557)
T9 construct: purchased Ambit Biosciences (San Diego, Calif.)
From the text: as §1

MAP3K4 = molecular target: T10, MAP3K4 (Homo sapiens, UniProt Q9Y6R4)
T10 construct: purchased Ambit Biosciences (San Diego, Calif.)
From the text: as §1

STK17B = molecular target: T11, STK17B (Homo sapiens, UniProt O94768)
T11 construct: purchased Ambit Biosciences
From the text: as §1

PTK2B = molecular target: T12, PTK2B (Homo sapiens, UniProt Q14289)
T12 construct: purchased Ambit Biosciences
From the text: as §1

LYN = molecular target: T13, LYN (Homo sapiens, UniProt P07948)
T13 construct: purchased Ambit Biosciences (San Diego, Calif.)
From the text: as §1

CAMKK2 = molecular target: T14, CAMKK2 (Homo sapiens, UniProt Q96RR4)
T14 construct: purchased Ambit Biosciences (San Diego, Calif.)
From the text: as §1

SLK = molecular target: T15, SLK (Homo sapiens, UniProt Q9H2G2)
T15 construct: purchased Ambit Biosciences
From the text: as §1

p38-gamma = molecular target: T16, p38-gamma (Homo sapiens, UniProt P53778)
T16 construct: purchased Ambit Biosciences (San Diego, Calif.)
From the text: as §1

AKT1 = molecular target: T17, AKT1 (Homo sapiens, UniProt P31749)
T17 construct: purchased Ambit Biosciences (San Diego, Calif.)
From the text: as §1

LTK = molecular target: T18, LTK (Homo sapiens, UniProt P29376)
T18 construct: purchased Ambit Biosciences (San Diego, Calif.)
From the text: as §1

BMX = molecular target: T19, BMX (Homo sapiens, UniProt P51813)
T19 construct: purchased Ambit Biosciences (San Diego, Calif.)
T19 sequence (P51813 whole entry): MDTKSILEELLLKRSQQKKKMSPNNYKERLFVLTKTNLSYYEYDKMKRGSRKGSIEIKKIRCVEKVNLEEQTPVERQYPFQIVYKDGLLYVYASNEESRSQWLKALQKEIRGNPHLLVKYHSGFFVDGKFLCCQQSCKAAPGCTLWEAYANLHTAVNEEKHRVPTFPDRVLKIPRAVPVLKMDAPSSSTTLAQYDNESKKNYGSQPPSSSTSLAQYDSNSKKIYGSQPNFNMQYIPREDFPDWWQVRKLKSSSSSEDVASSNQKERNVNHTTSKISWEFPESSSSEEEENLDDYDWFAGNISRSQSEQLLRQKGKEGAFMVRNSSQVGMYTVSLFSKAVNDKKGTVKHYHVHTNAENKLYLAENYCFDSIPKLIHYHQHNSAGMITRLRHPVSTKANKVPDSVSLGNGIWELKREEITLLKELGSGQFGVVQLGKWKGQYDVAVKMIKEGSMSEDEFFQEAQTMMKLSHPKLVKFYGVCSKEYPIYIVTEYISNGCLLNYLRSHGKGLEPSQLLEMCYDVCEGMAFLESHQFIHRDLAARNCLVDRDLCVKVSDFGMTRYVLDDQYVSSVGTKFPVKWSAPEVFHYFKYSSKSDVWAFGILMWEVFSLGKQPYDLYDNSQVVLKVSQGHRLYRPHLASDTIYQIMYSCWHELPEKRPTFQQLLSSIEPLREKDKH
From the text: as §1

JNK1 = molecular target: T20, JNK1 (Homo sapiens, UniProt P45983)
T20 construct: purchased Ambit Biosciences (San Diego, Calif.)
T20 sequence (P45983 whole entry): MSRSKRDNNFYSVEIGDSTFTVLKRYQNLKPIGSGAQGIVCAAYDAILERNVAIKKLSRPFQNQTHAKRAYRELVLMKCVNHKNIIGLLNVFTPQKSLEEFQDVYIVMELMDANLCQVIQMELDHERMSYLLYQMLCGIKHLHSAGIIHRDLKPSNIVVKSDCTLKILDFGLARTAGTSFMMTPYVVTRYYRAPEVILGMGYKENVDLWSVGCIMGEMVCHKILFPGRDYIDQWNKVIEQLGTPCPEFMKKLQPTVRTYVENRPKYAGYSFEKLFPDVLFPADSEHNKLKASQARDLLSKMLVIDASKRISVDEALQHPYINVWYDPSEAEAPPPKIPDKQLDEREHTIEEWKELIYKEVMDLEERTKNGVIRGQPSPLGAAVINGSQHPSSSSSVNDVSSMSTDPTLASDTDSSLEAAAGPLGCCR
From the text: as §1

EPHA2 = molecular target: T21, EPHA2 (Homo sapiens, UniProt P29317)
T21 construct: purchased Ambit Biosciences (San Diego, Calif.)

PKAC-alpha = molecular target: T22, PKAC-alpha (Homo sapiens, UniProt P17612)
T22 construct: purchased Ambit Biosciences (San Diego, Calif.)

PTK6 = molecular target: T23, PTK6 (Homo sapiens, UniProt Q13882)
T23 construct: purchased Ambit Biosciences

PHKG1 = molecular target: T24, PHKG1 (Homo sapiens, UniProt Q16816)
T24 construct: purchased Ambit Biosciences (San Diego, Calif.)

FGFR2 = molecular target: T25, FGFR2 (Homo sapiens, UniProt P21802)
T25 construct: purchased Ambit Biosciences (San Diego, Calif.)

AMPK-alpha1 = molecular target: T26, AMPK-alpha1 (Homo sapiens, UniProt Q13131)
T26 construct: purchased Ambit Biosciences (San Diego, Calif.)
T26 sequence (Q13131 whole entry): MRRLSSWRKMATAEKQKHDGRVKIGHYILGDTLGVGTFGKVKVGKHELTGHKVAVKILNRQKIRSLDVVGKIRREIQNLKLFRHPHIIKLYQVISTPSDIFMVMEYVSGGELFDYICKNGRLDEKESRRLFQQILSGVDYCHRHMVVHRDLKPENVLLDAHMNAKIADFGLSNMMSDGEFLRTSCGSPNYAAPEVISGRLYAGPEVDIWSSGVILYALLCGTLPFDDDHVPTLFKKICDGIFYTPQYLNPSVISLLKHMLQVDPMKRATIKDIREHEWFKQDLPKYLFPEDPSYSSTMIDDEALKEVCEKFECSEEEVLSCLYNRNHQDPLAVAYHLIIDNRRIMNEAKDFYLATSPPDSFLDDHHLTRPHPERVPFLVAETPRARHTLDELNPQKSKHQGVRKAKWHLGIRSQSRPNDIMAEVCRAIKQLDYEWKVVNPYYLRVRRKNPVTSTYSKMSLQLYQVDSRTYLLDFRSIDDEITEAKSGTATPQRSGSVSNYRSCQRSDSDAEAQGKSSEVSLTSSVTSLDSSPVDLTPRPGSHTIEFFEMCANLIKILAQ

RPS6KA3 = molecular target: T27, RPS6KA3 (Homo sapiens, UniProt P51812)
T27 construct: purchased Ambit Biosciences
T27 sequence (P51812 whole entry): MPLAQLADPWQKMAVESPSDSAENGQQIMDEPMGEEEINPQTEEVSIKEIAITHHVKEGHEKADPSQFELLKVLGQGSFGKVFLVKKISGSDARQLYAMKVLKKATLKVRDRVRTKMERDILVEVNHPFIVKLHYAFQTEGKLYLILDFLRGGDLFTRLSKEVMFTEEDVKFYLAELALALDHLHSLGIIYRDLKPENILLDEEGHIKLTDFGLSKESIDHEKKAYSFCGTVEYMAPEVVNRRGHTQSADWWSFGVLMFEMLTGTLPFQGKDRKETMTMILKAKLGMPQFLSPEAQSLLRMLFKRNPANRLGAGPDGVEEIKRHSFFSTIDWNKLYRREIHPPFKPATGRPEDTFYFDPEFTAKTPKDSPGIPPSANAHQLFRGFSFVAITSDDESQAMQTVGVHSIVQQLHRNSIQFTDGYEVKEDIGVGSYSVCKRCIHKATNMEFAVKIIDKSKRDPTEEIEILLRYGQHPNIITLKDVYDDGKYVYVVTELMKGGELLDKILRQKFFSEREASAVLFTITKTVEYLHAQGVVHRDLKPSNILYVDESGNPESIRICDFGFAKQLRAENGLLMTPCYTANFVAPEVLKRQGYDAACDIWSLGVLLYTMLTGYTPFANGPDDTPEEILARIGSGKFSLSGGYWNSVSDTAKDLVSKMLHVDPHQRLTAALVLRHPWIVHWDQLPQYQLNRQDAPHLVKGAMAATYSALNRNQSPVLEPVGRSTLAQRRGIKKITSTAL

LIMK1 = molecular target: T28, LIMK1 (Homo sapiens, UniProt P53667)
T28 construct: purchased Ambit Biosciences (San Diego, Calif.)

JAK2(Kin.Dom2) = molecular target: T29, JAK2(Kin.Dom2) (Homo sapiens, UniProt O60674)
T29 construct: JAK2(Kin.Dom2); purchased Ambit Biosciences (San Diego, Calif.)
T29 sequence (O60674 849-1124 limits assumed): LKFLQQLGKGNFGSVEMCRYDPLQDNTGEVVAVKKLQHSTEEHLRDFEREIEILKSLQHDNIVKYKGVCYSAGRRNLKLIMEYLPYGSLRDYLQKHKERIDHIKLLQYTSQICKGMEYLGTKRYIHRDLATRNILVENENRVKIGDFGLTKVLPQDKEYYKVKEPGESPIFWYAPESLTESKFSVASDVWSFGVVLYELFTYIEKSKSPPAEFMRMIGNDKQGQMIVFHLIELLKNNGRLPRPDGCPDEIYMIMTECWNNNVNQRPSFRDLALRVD

CDK5 = molecular target: T30, CDK5 (Homo sapiens, UniProt Q00535)
T30 construct: purchased Ambit Biosciences (San Diego, Calif.)

p38-beta = molecular target: T31, p38-beta (Homo sapiens, UniProt Q15759)
T31 construct: purchased Ambit Biosciences (San Diego, Calif.)

FGR = molecular target: T32, FGR (Homo sapiens, UniProt P09769)
T32 construct: purchased Ambit Biosciences (San Diego, Calif.)

KIT = molecular target: T33, KIT (Homo sapiens, UniProt P10721)
T33 construct: purchased Ambit Biosciences (San Diego, Calif.)

CLK2 = molecular target: T34, CLK2 (Homo sapiens, UniProt P49760)
T34 construct: purchased Ambit Biosciences (San Diego, Calif.)

JNK2 = molecular target: T35, JNK2 (Homo sapiens, UniProt P45984)
T35 construct: purchased Ambit Biosciences (San Diego, Calif.)

STK3 = molecular target: T36, STK3 (Homo sapiens, UniProt Q13188)
T36 construct: purchased Ambit Biosciences
T36 sequence (Q13188 whole entry): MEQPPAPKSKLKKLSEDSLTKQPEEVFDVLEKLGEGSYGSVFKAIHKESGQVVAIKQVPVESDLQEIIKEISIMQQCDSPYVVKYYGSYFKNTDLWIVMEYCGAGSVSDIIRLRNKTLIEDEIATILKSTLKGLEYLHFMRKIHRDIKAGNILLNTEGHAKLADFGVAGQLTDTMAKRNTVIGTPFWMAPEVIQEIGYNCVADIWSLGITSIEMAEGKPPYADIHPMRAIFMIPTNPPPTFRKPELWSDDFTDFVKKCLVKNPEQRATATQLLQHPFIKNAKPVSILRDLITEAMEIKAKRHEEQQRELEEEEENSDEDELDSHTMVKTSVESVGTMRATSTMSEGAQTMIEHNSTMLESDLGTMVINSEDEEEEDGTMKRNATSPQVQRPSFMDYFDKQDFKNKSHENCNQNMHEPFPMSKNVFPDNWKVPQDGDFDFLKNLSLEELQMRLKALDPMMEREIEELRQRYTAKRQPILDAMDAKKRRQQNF

PAK4 = molecular target: T37, PAK4 (Homo sapiens, UniProt O96013)
T37 construct: purchased Ambit Biosciences (San Diego, Calif.)

AURKA = molecular target: T38, AURKA (Homo sapiens, UniProt O14965)
T38 construct: purchased Ambit Biosciences (San Diego, Calif.)

EPHA3 = molecular target: T39, EPHA3 (Homo sapiens, UniProt P29320)
T39 construct: purchased Ambit Biosciences (San Diego, Calif.)

NC(=O)c1ccc(-c2nc(-c3ccc4c(c3)OCO4)c(-c3ccccn3)[nH]2)cc1 [SB431542, 4-(4-benzo-[1,3]dioxol-5-yl-5-pyridin-2-yl-1H-imidazol-2-yl)benzamide]
inhibition at 10 µM (p38-alpha): < 50%
inhibition at 10 µM (RPS6KA2): < 50%
% Inhibition (CSNK1E; 10 μM, CSNK1E (CK1ε isoform)): 100%
inhibition at 10 µM (CSNK1E; 10 μM, CSNK1E (CK1ε isoform), read-out: % Inhibition): 100%
inhibition at 10 µM (FGFR3): < 50%
inhibition at 10 µM (EPHB4): < 50%
inhibition at 10 µM (STK4): < 50%
inhibition at 10 µM (RIPK2): < 50%
inhibition at 10 µM (CAMK1D): < 50%
inhibition at 10 µM (CAMK2D): < 50%
inhibition at 10 µM (MAP3K4): < 50%
inhibition at 10 µM (STK17B): < 50%
inhibition at 10 µM (PTK2B): < 50%
inhibition at 10 µM (LYN): < 50%
inhibition at 10 µM (CAMKK2): < 50%
inhibition at 10 µM (SLK): < 50%
inhibition at 10 µM (p38-gamma): < 50%
inhibition at 10 µM (AKT1): < 50%
inhibition at 10 µM (LTK): < 50%
inhibition at 10 µM (BMX): < 50%
inhibition at 10 µM (JNK1): < 50%
inhibition at 10 µM (EPHA2): < 50%
inhibition at 10 µM (PKAC-alpha): < 50%
inhibition at 10 µM (PTK6): < 50%
inhibition at 10 µM (PHKG1): < 50%
inhibition at 10 µM (FGFR2): < 50%
inhibition at 10 µM (AMPK-alpha1): < 50%
inhibition at 10 µM (RPS6KA3): < 50%
inhibition at 10 µM (LIMK1): < 50%
inhibition at 10 µM (JAK2(Kin.Dom2)): < 50%
inhibition at 10 µM (CDK5): < 50%
inhibition at 10 µM (p38-beta): < 50%
inhibition at 10 µM (FGR): < 50%
inhibition at 10 µM (KIT): < 50%
inhibition at 10 µM (CLK2): < 50%
inhibition at 10 µM (JNK2): < 50%
inhibition at 10 µM (STK3): < 50%
inhibition at 10 µM (PAK4): < 50%
inhibition at 10 µM (AURKA): < 50%
inhibition at 10 µM (EPHA3): < 50%

NC(=O)c1ccc(-c2nc(-c3ccc4c(c3)OCCO4)c(-c3ccccn3)[nH]2)cc1 [D4476, 4-[4-(2,3-Dihydro-benzo[1,4]dioxin-6-yl)-5-pyridin-2-yl-1H-imidazol-2-yl]benzamide]
inhibition at 10 µM (p38-alpha): < 50%
inhibition at 10 µM (RPS6KA2): < 50%
inhibition at 10 µM (CSNK1E): 100%
% Inhibition (CSNK1E; 10 μM, CSNK1E (CK1ε isoform)): 100%
inhibition at 10 µM (FGFR3): < 50%
inhibition at 10 µM (EPHB4): < 50%
inhibition at 10 µM (STK4): < 50%
inhibition at 10 µM (RIPK2): < 50%
inhibition at 10 µM (CAMK1D): < 50%
inhibition at 10 µM (CAMK2D): < 50%
inhibition at 10 µM (MAP3K4): < 50%
inhibition at 10 µM (STK17B): < 50%
inhibition at 10 µM (PTK2B): < 50%
inhibition at 10 µM (LYN): < 50%
inhibition at 10 µM (CAMKK2): < 50%
inhibition at 10 µM (SLK): < 50%
inhibition at 10 µM (p38-gamma): < 50%
inhibition at 10 µM (AKT1): < 50%
inhibition at 10 µM (LTK): < 50%
inhibition at 10 µM (BMX): < 50%
inhibition at 10 µM (JNK1): < 50%
inhibition at 10 µM (EPHA2): < 50%
inhibition at 10 µM (PKAC-alpha): < 50%
inhibition at 10 µM (PTK6): < 50%
inhibition at 10 µM (PHKG1): < 50%
inhibition at 10 µM (FGFR2): < 50%
inhibition at 10 µM (AMPK-alpha1): < 50%
inhibition at 10 µM (RPS6KA3): < 50%
inhibition at 10 µM (LIMK1): < 50%
inhibition at 10 µM (JAK2(Kin.Dom2)): < 50%
inhibition at 10 µM (CDK5): < 50%
inhibition at 10 µM (p38-beta): < 50%
inhibition at 10 µM (FGR): < 50%
inhibition at 10 µM (KIT): < 50%
inhibition at 10 µM (CLK2): < 50%
inhibition at 10 µM (JNK2): < 50%
inhibition at 10 µM (STK3): < 50%
inhibition at 10 µM (PAK4): < 50%
inhibition at 10 µM (AURKA): < 50%
inhibition at 10 µM (EPHA3): < 50%
